According to the NIST ThermoML archive (doi:10.1016/j.jct.2009.10.002):

Key:
[1] = mn = molality of the nth substance listed, in mol/kg; conditions: 298.15 K, 101 kPa, Liquid, Vibrating tube method
[2] = 298.15 K; 101.33 kPa; Liquid; Vibrating tube method

CC(=O)Nc1ccccc1C(=O)O [2-acetamidobenzoic acid] + CCCCCCCCO
[1]
Conditions	mass density [kg/m3]
m1 = 0.004871	822.31
m1 = 0.008993	822.47
m1 = 0.01189	822.58
m1 = 0.01818	822.82
m1 = 0.02358	823.02
m1 = 0.03392	823.42
m1 = 0.05837	824.35
m1 = 0.0873	825.4
m1 = 0.1273	826.83
m1 = 0.1682	828.43

NC(=O)c1ccccc1O [2-hydroxybenzamide] + CCCCCCCCO
[1]
Conditions	mass density [kg/m3]
m1 = 0.002458	822.19
m1 = 0.003905	822.23
m1 = 0.0061	822.31
m1 = 0.007816	822.37
m1 = 0.01182	822.51
m1 = 0.02311	822.87
m1 = 0.03084	823.13
m1 = 0.03859	823.39
m1 = 0.05387	823.86
m1 = 0.08947	825.16

CC(=O)Nc1cccc(C(=O)O)c1 [3-(acetylamino)benzoic acid] + CCCCCCCCO
[1]
Conditions	mass density [kg/m3]
m1 = 0.000244	822.13
m1 = 0.000488	822.14
m1 = 0.000973	822.17
m1 = 0.001081	822.17
m1 = 0.001283	822.18
m1 = 0.001361	822.19
m1 = 0.001375	822.19
m1 = 0.001452	822.19
m1 = 0.001582	822.2
m1 = 0.002358	822.23
m1 = 0.003857	822.28
m1 = 0.006025	822.36
m1 = 0.007586	822.43
m1 = 0.009397	822.51
m1 = 0.0109	822.57
m1 = 0.01161	822.6
m1 = 0.01355	822.68
m1 = 0.01453	822.72

CC(=O)Nc1cccc(O)c1 [3-acetamidophenol] + CCCCCCCCO
[1]
Conditions	mass density [kg/m3]
m1 = 0.002796	822.21
m1 = 0.006909	822.37
m1 = 0.008394	822.43
m1 = 0.01356	822.62
m1 = 0.02056	822.89
m1 = 0.04126	823.67
m1 = 0.08892	825.48
m1 = 0.1451	827.61
m1 = 0.1875	829.24
m1 = 0.2708	832.45

NC(=O)c1cccc(O)c1 [3-hydroxy-benzamide] + CCCCCCCCO
[1]
Conditions	mass density [kg/m3]
m1 = 0.001492	822.16
m1 = 0.002531	822.2
m1 = 0.003737	822.25
m1 = 0.006435	822.38
m1 = 0.007522	822.43
m1 = 0.01163	822.62
m1 = 0.02156	823.03
m1 = 0.03239	823.51
m1 = 0.04091	823.88
m1 = 0.05285	824.43
m1 = 0.07208	825.26
m1 = 0.08749	825.95

CC(=O)Nc1ccc(C(=O)O)cc1 [4-acetamidobenzoic acid] + CCCCCCCCO
[1]
Conditions	mass density [kg/m3]
m1 = 0.000708	822.14
m1 = 0.00077	822.15
m1 = 0.000914	822.16
m1 = 0.001192	822.17
m1 = 0.001367	822.18
m1 = 0.002266	822.23
m1 = 0.002865	822.26
m1 = 0.002919	822.26
m1 = 0.003657	822.3
m1 = 0.005744	822.42
m1 = 0.01212	822.76
m1 = 0.01816	823.12
m1 = 0.02407	823.47
m1 = 0.0284	823.73
m1 = 0.03621	824.17

NC(=O)c1ccc(O)cc1 [4-hydroxybenzamide] + CCCCCCCCO
[1]
Conditions	mass density [kg/m3]
m1 = 0.002127	822.18
m1 = 0.005332	822.31
m1 = 0.005725	822.34
m1 = 0.007571	822.43
m1 = 0.01115	822.59
m1 = 0.01722	822.85
m1 = 0.02131	822.99
m1 = 0.02267	823.06
m1 = 0.02734	823.25
m1 = 0.02874	823.32
m1 = 0.038	823.71
m1 = 0.05733	824.52
m1 = 0.0819	825.53
m1 = 0.09825	826.23
m1 = 0.1209	827.18
m1 = 0.1408	828.01
m1 = 0.1856	829.93

CC(=O)Nc1ccccc1O [N-(2-hydroxyphenyl)ethanamide] + CCCCCCCCO
[1]
Conditions	mass density [kg/m3]
m1 = 0.001728	822.19
m1 = 0.002758	822.23
m1 = 0.003165	822.24
m1 = 0.003211	822.24
m1 = 0.004195	822.28
m1 = 0.005164	822.31
m1 = 0.006563	822.36
m1 = 0.01154	822.56
m1 = 0.0164	822.75
m1 = 0.01909	822.86
m1 = 0.02399	823.06
m1 = 0.03356	823.46

CCOc1ccc(NC(C)=O)cc1 [N-(4-ethoxyphenyl)ethanamide] + CCCCCCCCO
[1]
Conditions	mass density [kg/m3]
m1 = 0.00971	822.4
m1 = 0.01263	822.48
m1 = 0.01969	822.67
m1 = 0.0229	822.75
m1 = 0.02432	822.79
m1 = 0.02706	822.86
m1 = 0.03645	823.12
m1 = 0.04962	823.48
m1 = 0.06288	823.85
m1 = 0.08214	824.37
m1 = 0.105	824.98
m1 = 0.1351	825.83
m1 = 0.1591	826.63

CC(=O)Nc1ccc(O)cc1 [N-acetyl-p-aminophenol] + CCCCCCCCO
[1]
Conditions	mass density [kg/m3]
m1 = 0.006684	822.49
m1 = 0.009351	822.61
m1 = 0.01261	822.76
m1 = 0.0141	822.83
m1 = 0.01601	822.91
m1 = 0.01873	823.05
m1 = 0.02173	823.19
m1 = 0.02486	823.33
m1 = 0.03075	823.59
m1 = 0.03578	823.8
m1 = 0.04077	824.01
m1 = 0.04581	824.23
m1 = 0.05103	824.46
m1 = 0.05889	824.81
m1 = 0.06631	825.1
m1 = 0.07665	825.5
m1 = 0.08633	825.93
m1 = 0.1379	828.16

CC(=O)Nc1ccccc1 [N-phenylethanamide] + CCCCCCCCO
[1]
Conditions	mass density [kg/m3]
m1 = 0.002139	822.18
m1 = 0.00565	822.29
m1 = 0.01113	822.46
m1 = 0.01413	822.55
m1 = 0.02434	822.84
m1 = 0.02629	822.9
m1 = 0.05259	823.67
m1 = 0.08132	824.49
m1 = 0.1056	825.18
m1 = 0.1482	826.35
m1 = 0.1847	827.37
m1 = 0.2858	830.1
m1 = 0.3663	832.25

NC(=O)c1ccccc1 [benzamide] + CCCCCCCCO
[1]
Conditions	mass density [kg/m3]
m1 = 0.004751	822.25
m1 = 0.009145	822.4
m1 = 0.01194	822.49
m1 = 0.01802	822.68
m1 = 0.02473	822.9
m1 = 0.03952	823.38
m1 = 0.07569	824.52
m1 = 0.108	825.55
m1 = 0.1331	826.37
m1 = 0.179	827.87

O=C(O)c1ccccc1 [benzoic acid] + CCCCCCCCO
[1]
Conditions	mass density [kg/m3]
m1 = 0.002452	822.18
m1 = 0.005198	822.27
m1 = 0.01254	822.53
m1 = 0.01324	822.55
m1 = 0.03589	823.34
m1 = 0.06692	824.43
m1 = 0.198	828.84
m1 = 0.3209	832.91
m1 = 0.4227	836.12
m1 = 0.5096	838.89

CCCCCCCCO [octan-1-ol]
Conditions	mass density [kg/m3]
[2]	822.11

Oc1ccccc1 [phenol] + CCCCCCCCO
[1]
Conditions	mass density [kg/m3]
m1 = 0.01293	822.32
m1 = 0.0235	822.59
m1 = 0.03299	822.87
m1 = 0.04712	823.32
m1 = 0.06563	823.78
m1 = 0.1179	825.01
m1 = 0.2355	827.82
m1 = 0.2692	828.62
m1 = 0.3564	831.14
m1 = 0.4787	834.18
